Measured values from article PMC12298883, “Discovery of Cyclopentane-Based Phospholipids as Miltefosine Analogs with Superior Potency and Enhanced Selectivity Against Naegleria fowleri” (Pharmaceuticals, 2025).

What was measured:
N. fowleri trophozoites = experiment: Apoptosis/necrosis fluorescence staining assay; assay type: cell-based, Naegleria fowleri; conditions: at IC90, 48 h; apopxin green, 7-AAD red, cytocalcein blue
Text: While apoptosis was previously believed to occur in multicellular metazoans, it was discovered that ancient forms of apoptotic-like cell death, which mimics some characteristics of apoptosis, can also trigger death in protozoa. In fact, apoptosis-like death is one of the programmed cell death molecular mechanisms in protozoa that also include necrosis. To further understand how compounds 2a, 3b and 3d trigger the death of N. fowleri in comparison to miltefosine, an evaluation of apoptosis and necrosis was conducted at IC90 of the tested compounds for 48 h. […] The diminished cytocalceine blue fluorescence, coupled with the surge in green fluorescence signifying apoptosis after treatment with the compounds (Figure 5), clearly indicates the reduction in viable cells and the initiation of programmed cell death. The absence of 7-AAD red fluorescence further reinforces the lack of detectable necrosis. This is a desirable trait for potential therapeutic agents, as necrosis, unlike apoptosis, can trigger inflammation due to the uncontrolled release of intracellular contents.
Figure 5 Apoptosis/necrosis assay. A fluorescence staining assay was performed using N. fowleri trophozoites treated with compounds 2a, 3b, 3d, and miltefosine (MF) as a reference; NC, negative controls with 0.1% DMSO treatment. Blue fluorescence representing living cells stained with cytocalcein (DAPI channel, Ex/Em = 405/450 nm). Green apopxin stains apoptotic cells to show green fluorescence (GFP channel, Ex/Em = 490/525 nm). 7-Amino Actinomycin D (7-AAD) stains late apoptotic cells and necrotic cells to show red fluorescence (RFP channel, Ex/Em = 550/650 nm). Images were representatives of cell populations in three individual experiments. Size bar: 10 µm.
Apoptosis/necrosis in treated N. fowleri trophozoites was assessed using the Apoptosis/Necrosis Detection Kit (Abcam, Cambridge, UK). N. fowleri trophozoites (5 × 10^4 cells/well) were seeded in a 96-well black/clear bottom plate (Thermo Fisher Scientific). Compounds 2a, 3b and 3d were treated to the cells at the concentrations of IC90 and incubated at 37 °C for 48 h. The apoptosis/necrosis assay was performed as described previously. Amoebae treated with 0.1% DMSO and miltefosine (IC90) were used as the negative controls (NC) and the positive controls, respectively.

C6 glial cells = experiment: Cytotoxicity assay for C6 cells (CellTiter-Blue); assay type: cell-based; conditions: C6 rat glial cells, viability; mean ± SD
Experimental: A viability assay was performed to evaluate the inhibitory activity of the tested compounds by determining their IC50 values against N. fowleri, using miltefosine as a reference drug. To assess the selectivity of the tested compounds relative to miltefosine, cytotoxic values that reduced the viability of C6 glial cells by 50% were established.
N. fowleri Carter NF69 strain (ATCC 30215; American Type Culture Collection, Manassas, VA, USA) was used. Amoeba trophozoites were cultured and maintained in Nelson’s medium containing 5% foetal bovine serum (FBS; Gibco, Grand Island, NY, USA) and 1% penicillin/streptomycin (P/S; Gibco, Grand Island, NY, USA) at 37 °C [56]. C6 rat glial cells (C6 cells; ATCC CCL-107) were cultured in Dulbecco’s Modified Eagle’s Medium (DMEM; Gibco, Grand Island, NY, USA) supplemented with 10% FBS (Gibco, Grand Island, NY, USA) and 1% P/S (Gibco, Grand Island, NY, USA) at 37 °C in a humidified incubator under 5% CO2 atmosphere.
The potential cytotoxicity of tested compounds and miltefosine in C6 cells was analysed. The cells were seeded in a 96-well microplate (Thermo Fisher Scientific; 2 × 10^4 cells/well), respectively, and incubated overnight until 80% confluent. Serially diluted tested compounds and miltefosine were treated to the cells as described above. Morphological changes of the cells were observed by microscopic examination. Cell viability was determined using the CellTiter-Blue® Cell viability assay (Promega, […], USA). The cytotoxic concentrations 50 (CC50) of tested compounds and miltefosine were calculated using GraphPad Prism 9.1.0 software (GraphPad Software, San Diego, CA, USA). The […] (SI) was determined by the ratio between CC50 and IC50. Cells treated with 0.1% DMSO, which was confirmed not to alter the morphology of the cells by microscopic examination, were used as controls with 100% cell viability.

SMILES | mode of cell death (apoptosis/necrosis staining) (N. fowleri trophozoites) | CC50 (C6 glial cells) [µM]
CCCCCCCCCCCCCO[C@@H]1CCC[C@H]1COP(=O)([O-])OCC[N+](C)(C)C [Compound 2a] | apoptosis-like death, rather than necrosis | 
CCCCCCCCCCCCCOC[C@@H]1CCC[C@H]1OP(=O)([O-])OCC[N+](C)(C)C [Compound 3b] | apoptosis-like death, rather than necrosis | 
CCCCCCCCCCCCCCCCCCCCCCOC[C@@H]1CCC[C@H]1OP(=O)([O-])OCC[N+](C)(C)C [Compound 3d] | apoptosis-like death, rather than necrosis | 
CCCCCCCCCCCCCCCCOP(=O)([O-])OCC[N+](C)(C)C [Miltefosine] | apoptosis-like death, rather than necrosis | 158.9 ± 1.49
